The target of one assay is fascin (Homo sapiens (Human), UniProt Q16658). The assay is described as follows: High throughput fascin inhibition assay (actin bundling, F-actin imaging). It is filed as biochemical. As for the experimental part: A high throughput assay was developed to screen for fascin specific inhibitors. Purified polymerized F-actin with or without fascin were mixed and incubated to allow actin bundle formation. F-actin polymers were then bound to the poly-D-lysine coated plates. […] Four images were taken from each well and the average fiber length was analyzed for each tested compound.
Recombinant human fascin 1 was expressed as a GST fusion protein in BL21 Escherichia coli. One liter of 2YT medium with ampicillin was inoculated overnight with 3 mL of BL21/DE3 culture transformed with pGEX4T-fascin 1 plasmid and grown at 37° C. until attenuance at 600 nm (D600) reached about 0.8. The culture was then transferred to 18° C. and induced by the addition of 0.1 mM isopropyl β-d-thiogalactoside (IPTG) for 12 h. Bacteria were harvested by centrifugation at 5,000 r.p.m. for 10 min. The pellets were suspended in 30 mL of PBS supplemented with 0.2 mM PMSF, 1 mM DTT, 1% (v/v) Triton X-100 and 1 mM EDTA. After sonication, the suspension was centrifuged at 15,000 r.p.m. for 30 min to remove the cell debris. The supernatant was then incubated for 2 h with 4 mL of glutathione beads (Sigma) at 4° C. After extensive washing with PBS, the beads were resuspended in 10 mL of thrombin cleavage buffer (20 mM Tris-HCl pH 8.0, 150 mM NaCl, 2 mM CaCl2, 1 mM DTT). Fascin was released from the beads by incubation overnight with 40-100 U of thrombin at 4° C. After centrifugation, 0.2 mM PMSF was added to the supernatant to inactivate the remnant thrombin activity. The fascin protein was further concentrated with a Centricon® (Boca Raton, Fla.) filter to about 50 mg/mL.
About 150,000 compounds were screened. […] Purified fascin protein (15 μL of 0.5 μM) in buffer (100 mM KCl, 20 mM Tris/HCl, pH 7.5, 2 mM MgCl2) was added into each well of a clear 384-well flat-bottom plate (Corning) using Thermo Multidrop Combi (Fisher). Compound ([…]) solutions (5 mM stock) from various chemical libraries were pin transferred from stock 384-well plates into the 384-well assay plates and incubated for 30 min. Then 15 μL of 0.5 μM polymerized actin (in 100 mM KCl, 20 mM Tris/HCl, pH 7.5, 2 mM MgCl2, 1 mM DTT, 1 mM ATP) (Cytoskeleton Inc.) was added, resulting in 30 μM final concentration for chemical compounds. […] Mixed solution (25 μL) was then transferred to one well in a black 384-well plate coated with poly-D-lysine, and stained actin bundles or F-actin would stick onto the poly-D-lysine plates. After the plates were thoroughly washed with 1×PBS for 3 times, the plate was imaged using an ImageXpress Micro High Content Screening System (Molecular devices). The images were processed and analyzed using MetaMorph software. The raw image data for each well was background-corrected by subtraction of the median intensities across all wells on the plate. The background-corrected data was used to compute the bundle length for each well. The negative control wells were employed for quality control: multiple DMSO-only control wells (16 wells/plate) were present on each assay plate.

The test system of a further assay is 4T1 breast tumor cells. The assay is described as follows: Boyden-chamber cell migration assay, 4T1. It is filed as cell-based. As to the method:
Since fascin is critical for tumor cell migration, inhibitors of fascin should block tumor cell migration. Representative compounds were selected from the above-identified fascin inhibitors to test their abilities on inhibition of tumor cell migration (See Table 2). […] The cell lines used are listed below.
Exemplifying procedure: MDA-MB-231 cells (5×10^4) or 4T1 Cells (1×10^5) suspended in 100 μL starvation medium were added to the upper chamber of an insert (6.5 mm diameter, 8 μm pore size; Becton Dickson), and the insert was placed in a 24-well plate containing 700 μL starvation medium with or without 10% FBS. […] Migration assays were performed for 6 h and cells were fixed with 3.7% formaldehyde. Cells were stained with crystal violet staining solution, and cells on the upper side of the insert were removed with a cotton swab. Three randomly selected fields (×10 objectives) on the lower side of the insert were photographed, and the migrated cells were counted. Migration was expressed as average number of migrated cells in a field.

In patent publication US10208043B2, “Methods for inhibiting fascin” (Novita Pharmaceuticals, Inc., priority 2012, dated 2019) one finds IC50 data, which are given here for 27 compounds.

Molecules are shown by their SMILES.

The term IC50 denotes the concentration needed to halve the response being measured. Lower therefore signals higher potency. `O=c1c2cnn(C3CCS(=O)(=O)C3)c2ncn1Cc1ccc(Cl)c(Cl)c1` [Compound 1, 5-(3,4-dichlorobenzyl)-1-(S,S,-dioxo-tetrahydrothiophen-3-yl)-1H-pyrazolo[3,4-d]pyrimidin-4(5H)-one]: 0.734 µM corresponded to half-maximal inhibition at fascin (IC50).

On to `O=C(Nc1nn(Cc2ccc(C(F)(F)F)cc2)c2ccccc12)c1ccco1` [Compound 2, N-(1-(4-(trifluoromethyl)benzyl)-1H-indazol-3-yl)furan-2-carboxamide], for which, at fascin, it took 2 µM to reach half-maximal inhibition (IC50).

Take `CNc1nc(-c2ccccc2)[n+](-c2ccccc2)s1` [Compound 5, N-methyl-2,3-diphenyl-1,2,4-thiadiazolium-5-amine]: the IC50 at fascin is 0.5 µM; in the assay on 4T1 breast tumor cells, 30 µM.

In the case of `c1ccc(CNc2nc(-c3ccccc3)[n+](-c3ccccc3)s2)cc1` [Compound 6, N-benzyl-2,3-diphenyl-1,2,4-thiadiazolium-5-amine], the IC50 against fascin was found to be 5 µM.

As for `c1ccc(Nc2nc(-c3ccccc3)[n+](-c3ccccc3)s2)cc1` [Compound 7, N-phenyl-2,3-diphenyl-1,2,4-thiadiazolium-5-amine], the concentration for half-maximal inhibition (IC50) on fascin was 2 µM; with 4T1 breast tumor cells, more than 50 µM.

Regarding `Cc1ccc(C)c(S(=O)(=O)Nc2cc(Sc3nc[nH]n3)c(O)c3ccccc23)c1` [Compound 8, N-(3-(1H-1,2,4-triazol-3-ylthio)-4-hydroxynaphthalen-1-yl)-2,5-dimethylbenzenesulfonamide], the IC50 was 0.683 µM on fascin and 20 µM with 4T1 breast tumor cells.

For the compound `CCOc1ccc(S(=O)(=O)Nc2cc(Sc3nc[nH]n3)c(O)c3ccccc23)cc1` [Compound 9, N-(3-(1H-1,2,4-triazol-3-ylthio)-4-hydroxynaphthalen-1-yl)-4-ethoxybenzenesulfonamide], the IC50 was 1.47 µM on fascin and more than 20 µM in the assay with 4T1 breast tumor cells.

In the case of `CCc1ccc(S(=O)(=O)Nc2cc(Sc3nc[nH]n3)c(O)c3ccccc23)cc1` [Compound 11, N-(3-(1H-1,2,4-triazol-3-ylthio)-4-hydroxynaphthalen-1-yl)-4-ethylbenzenesulfonamide], the values for the IC50 on fascin and with 4T1 breast tumor cells were 0.89 µM and approximately 20 µM, respectively.

Consider `Cc1cc(C)c(S(=O)(=O)Nc2cc(Sc3nc[nH]n3)c(O)c3ccccc23)cc1C` [Compound 12, N-(3-(1H-1,2,4-triazol-3-ylthio)-4-hydroxynaphthalen-1-yl)-2,4,5-trimethylbenzenesulfonamide], for which the IC50 against fascin amounted to 0.539 µM; with 4T1 breast tumor cells, 16 µM.

Consider `O=C1C(Sc2nc[nH]n2)=C/C(=N/S(=O)(=O)c2ccccc2)c2ccccc21` [Compound 13, (Z)-N-(3-(1H-1,2,4-triazol-3-ylthio)-4-oxonaphthalen-1(4H)-ylidene)benzenesulfonamide], for which the IC50 against fascin was 2 µM; with 4T1 breast tumor cells, more than 30 µM.

In the case of `O=S(=O)(Nc1cc(Sc2nc[nH]n2)c(O)c2ccccc12)c1ccc(Br)cc1` [Compound 14, N-(3-(1H-1,2,4-triazol-3-ylthio)-4-hydroxynaphthalen-1-yl)-4-bromobenzenesulfonamide], the IC50 at fascin was 2.62 µM; with 4T1 breast tumor cells, approximately 25 µM.

For the compound `Cc1ccc(S(=O)(=O)Nc2cc(Sc3nc[nH]n3)c(O)c3ccccc23)c(C)c1` [Compound 15, N-(3-(1H-1,2,4-triazol-3-ylthio)-4-hydroxynaphthalen-1-yl)-2,4-dimethylbenzenesulfonamide], the figures for the concentration for half-maximal inhibition (IC50) against fascin and in the assay on 4T1 breast tumor cells were 2.7 µM and more than 30 µM, respectively.

With `O=S(=O)(Nc1nc2ccc(Oc3ccccc3)cc2s1)c1cccc(Cl)c1` [Compound 16, 3-chloro-N-(6-phenoxybenzo[d]thiazol-2-yl)benzenesulfonamide], the IC50 against fascin was approximately 4 µM; with 4T1 breast tumor cells, approximately 7 µM.

Consider `O=[N+]([O-])c1cccc(S(=O)(=O)Nc2nc3ccc(F)cc3s2)c1` [Compound 17, N-(6-fluorobenzo[d]thiazol-2-yl)-3-nitrobenzenesulfonamide], for which the figures for the IC50 against fascin and in the assay on 4T1 breast tumor cells were approximately 4 µM and approximately 60 µM, respectively.

As for `O=S(=O)(Nc1nc2ccc(F)cc2s1)c1cccc(Cl)c1Cl` [Compound 18, 2,3-dichloro-N-(6-fluorobenzo[d]thiazol-2-yl)benzenesulfonamide], the IC50 was approximately 13 µM at fascin and approximately 3 µM with 4T1 breast tumor cells.

As to `CC(=O)Nc1nc2ccc(Cl)cc2s1` [Compound 19, N-(6-chlorobenzo[d]thiazol-2-yl)acetamide], the IC50 on fascin was approximately 2 µM; in the assay on 4T1 breast tumor cells, approximately 25 µM.

`O=c1c2cnn(CCO)c2ncn1Cc1cccc(Cl)c1` [Compound 21, 5-(3-chlorobenzyl)-1-(2-hydroxyethyl)-1H-pyrazolo[3,4-d]pyrimidin-4(5H)-one] registered an IC50 at fascin of 1.2 µM.

As for `O=C(Cn1cnc2c(cnn2C2CCS(=O)(=O)C2)c1=O)Nc1cccc(C(F)(F)F)c1` [Compound 23, 2-(4-oxo-1-(S,S,-dioxo-tetrahydrothiophen-3-yl)-1H-pyrazolo[3,4-d]pyrimidin-5(4H)-yl)-N-(3-(trifluoromethyl)phenyl)acetamide], on fascin, it took 3.4 µM to reach half-maximal inhibition (IC50).

On to `O=C(Cn1cnc2c(cnn2C2CCS(=O)(=O)C2)c1=O)NCc1ccc(F)cc1` [Compound 24, N-(4-fluorobenzyl)-2-(4-oxo-1-(S,S-dioxo-tetrahydrothiophen-3-yl)-1H-pyrazolo[3,4-d]pyrimidin-5(4H)-yl)acetamide], for which, on fascin, the IC50 worked out at 4.3 µM.

Regarding `O=C(Cn1cnc2c(cnn2C2CCS(=O)(=O)C2)c1=O)NCc1ccc2c(c1)OCO2` [Compound 25, N-(benzo[d][1,3]dioxol-5-ylmethyl)-2-(4-oxo-1-(S,S-dioxo-tetrahydrothiophen-3-yl)-1H-pyrazolo[3,4-d]pyrimidin-5(4H)-yl)acetamide], the 50% inhibitory concentration (IC50) at fascin is 4.6 µM.

For `O=C(Cn1cnc2c(cnn2C2CCS(=O)(=O)C2)c1=O)Nc1ccc(Cl)cc1` [Compound 26, N-(4-chlorophenyl)-2-(4-oxo-1-(S,S-dioxo-tetrahydrothiophen-3-yl)-1H-pyrazolo[3,4-d]pyrimidin-5(4H)-yl)acetamide], the IC50 against fascin came to 4.3 µM.

Turning to `O=C(Cn1cnc2c(cnn2C2CCS(=O)(=O)C2)c1=O)c1ccc2c(c1)OCCO2` [Compound 27, 5-(2-(2,3-dihydrobenzo[b][1,4]dioxin-6-yl)-2-oxoethyl)-1-(S,S-dioxo-tetrahydrothiophen-3-yl)-1H-pyrazolo[3,4-d]pyrimidin-4(5H)-one], the IC50 against fascin was approximately 10 µM.

As for `Cc1ccc(C(=O)Cn2cnc3c(cnn3C3CCS(=O)(=O)C3)c2=O)c(C)c1` [Compound 28, 5-(2-(2,4-dimethylphenyl)-2-oxoethyl)-1-(S,S-dioxo-tetrahydrothiophen-3-yl)-1H-pyrazolo[3,4-d]pyrimidin-4(5H)-one], the IC50 against fascin was 4.7 µM.

Turning to `O=C(Cn1cnc2c(cnn2C2CCS(=O)(=O)C2)c1=O)c1ccc2c(c1)OCO2` [Compound 29, 5-(2-(benzo[d][1,3]dioxol-5-yl)-2-oxoethyl)-1-(S,S-dioxo-tetrahydrothiophen-3-yl)-1H-pyrazolo[3,4-d]pyrimidin-4(5H)-one], the IC50 against fascin was found to be 3.7 µM.

In turn, `Cc1ccccc1-n1ncc2c(=O)n(Cc3ccc(Cl)c(Cl)c3)cnc21` [Compound 30, 5-(3,4-dichlorobenzyl)-1-o-tolyl-1H-pyrazolo[3,4-d]pyrimidin-4(5H)-one] returned an IC50 at fascin of 2 µM.

Regarding `Cc1cccc(-n2ncc3c(=O)n(Cc4ccc(Cl)c(Cl)c4)cnc32)c1C` [Compound 31, 5-(3,4-dichlorobenzyl)-1-(2,3-dimethylphenyl)-1H-pyrazolo[3,4-d]pyrimidin-4(5H)-one], half-maximal inhibition at fascin (IC50) required 2.3 µM.

At fascin, `Cc1ccc(-n2ncc3c(=O)n(Cc4ccc(Cl)c(Cl)c4)cnc32)c(C)c1` [Compound 32, 5-(3,4-dichlorobenzyl)-1-(2,4-dimethylphenyl)-1H-pyrazolo[3,4-d]pyrimidin-4(5H)-one] returned an IC50 of 2.1 µM.
